Measured values taken from patent US9458154B2, “Kinase inhibitors” (Chiesi Farmaceutici S.p.A., priority 2011, dated 2016).
Counter-ions that a name gives are not always drawn.

Target: T1, p38alpha (Homo sapiens, UniProt Q16539)
T1 construct: purchased Invitrogen PV3304
Experiment: P38alpha Enzyme Inhibition Assay (Alphascreen kinase activity assay)
Assay type: biochemical
Details: 100 pM p38alpha, ATF-2 fusion protein substrate, 250 μM ATP, 2 hours preincubation at 25° C.; read-out: p38α inhibition
Method: P38alpha Enzyme Inhibition Assay
The inhibitory activity of compounds was determined using an Alphascreen® (Perkin Elmer) based kinase activity assay. Kinase reactions consisted of 25 mM HEPES pH 7.5, 10 mM MgCl2, 100 μM Na3VO4, 2 mM DTT, 0.05 mg/ml Tween 20, 100 pM p38alpha (Invitrogen, PV3304), 1% DMSO and 0.3 μg/ml ATF-2 fusion protein (New England Biolabs, 9224). Compounds were incubated under these conditions for 2 hours, at 25° C., prior to the initiation of the kinase activity by the addition of the 250 μM ATP. Reaction volumes were 20 uL. After 1 hr at 25° C. reactions were stopped by the adding 10 uL of 25 mM HEPES pH 7.5 containing 62.5 mM EDTA, 0.05% Triton X-100, 10% BSA and 0.83 ng/uL anti-phospho-ATF2 antibody (Abcam, ab28812). Detection was performed by measuring luminescence following the addition of Alphascreen Donor beads (Perkin Elmer 6765300) and Protein A Alphascreen Acceptor beads (Perkin Elmer 6760137), both at a final concentration of 20 ug/ml. IC50 values were determined from concentration-response curves.

T1 sequence (Q16539 whole entry): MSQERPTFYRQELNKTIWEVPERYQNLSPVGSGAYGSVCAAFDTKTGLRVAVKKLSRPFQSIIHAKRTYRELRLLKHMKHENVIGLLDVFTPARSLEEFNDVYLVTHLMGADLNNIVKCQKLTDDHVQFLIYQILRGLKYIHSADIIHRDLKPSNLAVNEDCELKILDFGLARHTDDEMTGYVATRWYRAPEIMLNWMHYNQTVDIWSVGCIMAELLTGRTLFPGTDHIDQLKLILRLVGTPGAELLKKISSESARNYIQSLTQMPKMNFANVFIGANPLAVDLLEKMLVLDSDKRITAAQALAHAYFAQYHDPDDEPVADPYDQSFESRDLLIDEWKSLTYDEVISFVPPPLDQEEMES

IC50 [nM] | SMILES
< 10 | Cc1ccc(-n2nc(C(C)(C)C)cc2NC(=O)N[C@@H]2C[C@@H](Sc3ccc4nnc(C(C)C)n4c3)c3ccccc32)cc1 (racemic) [Example 3, (±)-trans-1-(5-tert-Butyl-2-p-tolyl-2H-pyrazol-3-yl)-3-[3-(3-isopropyl-[1,2,4]triazolo[4,3-a]pyridin-6-ylsulfanyl)-indan-1-yl]-urea]
< 10 | CC(C)c1nnc2ccc(O[C@@H]3CC[C@H](NC(=O)Nc4cc(C(C)(C)C)nn4-c4ccccc4)c4ccccc43)cn12 [Example 1, 1-(5-tert-Butyl-2-phenyl-2H-pyrazol-3-yl)-3-[(1S,4R)-4-(3-isopropyl-[1,2,4]triazolo[4,3-a]pyridin-6-yloxy)-1,2,3,4-tetrahydro-naphthalen-1-yl]-urea]
< 10 | CC(C)c1nnc2ccc(O[C@H]3CC[C@H](NC(=O)NC4CC4)c4ccccc43)cn12 [Example 2, 1-Cyclopropyl-3-[(1S,4S)-4-(3-isopropyl-[1,2,4]triazolo[4,3-a]pyridin-6-yloxy)-1,2,3,4-tetrahydro-naphthalen-1-yl]-urea]
< 10 | Cc1ccc(-n2nc(C(C)(C)C)cc2NC(=O)N[C@H]2CC[C@@H](Oc3ccc4nnc(-c5cccc(OCCN6CCOCC6)c5)n4c3)c3ccccc32)cc1 [Example 4, 1-(5-tert-Butyl-2-p-tolyl-2H-pyrazol-3-yl)-3-[(1S,4R)-4-{3-[3-(2-morpholin-4-yl-ethoxy)-phenyl]-[1,2,4]triazolo[4,3-a]pyridin-6-yloxy}-1,2,3,4-tetrahydro-naphthalen-1-yl)-urea]
< 10 | Cc1ccc(-n2nc(C(C)(C)C)cc2NC(=O)N[C@H]2CC[C@@H](Oc3ccn4c(C(C)C)nnc4c3)c3ccccc32)cc1 [Example 5, 1-(5-tert-Butyl-2-p-tolyl-2H-pyrazol-3-yl)-3-[(1S,4R)-4-(3-isopropyl-[1,2,4]triazolo[4,3-a]pyridin-7-yloxy)-1,2,3,4-tetrahydro-naphthalen-1-yl]-urea]
< 10 | CC(C)c1nnc2ccc(O[C@@H]3CC[C@H](NC(=O)Nc4cc(C(C)(C)C)nn4-c4cccc(OCCN5CCOCC5)c4)c4ccccc43)cn12 [Example 6, 1-{5-tert-Butyl-2-[3-(2-morpholin-4-yl-ethoxy)-phenyl]-2H-pyrazol-3-yl}-3-[(1S,4R)-4-(3-isopropyl-[1,2,4]triazolo[4,3-a]pyridin-6-yloxy)-1,2,3,4-tetrahydro-naphthalen-1-yl]-urea]
< 10 | Cc1ccc(-n2nc(C(C)(C)C)cc2NC(=O)N[C@H]2CC[C@@H](Oc3ccc4nnc(-c5ccccc5O)n4c3)c3ccccc32)cc1 [Example 7, 1-(5-tert-Butyl-2-p-tolyl-2H-pyrazol-3-yl)-3-{(1S,4R)-4-(3-(2-hydroxy-phenyl)-[1,2,4]triazolo[4,3-a]pyridin-6-yloxy)-1,2,3,4-tetrahydro-naphthalen-1-yl}-urea]
< 10 | CC(C)c1nnc2ccc(O[C@H]3C[C@H](NC(=O)Nc4cc(C(C)(C)C)on4)c4ccccc43)cn12 [Example 8, 1-(5-tert-Butyl-isoxazol-3-yl)-3-[(1S,3S)-3-(3-isopropyl-[1,2,4]triazolo[4,3-a]pyridin-6-yloxy)-indan-1-yl]-urea]
< 10 | COCC(=O)Nc1cc(CO[C@@H]2CC[C@H](NC(=O)Nc3cc(C(C)(C)C)nn3-c3ccc(C)cc3)c3ccccc32)ccn1 [Example 9, N-(4-{(1R,4S)-4-[3-(5-tert-Butyl-2-p-tolyl-2H-pyrazol-3-yl)-ureido]-1,2,3,4-tetrahydro-naphthalen-1-yloxymethyl}-pyridin-2-yl)-2-methoxy-acetamide]
< 10 | Cc1ccc(-n2nc(C(C)(C)C)cc2NC(=O)N[C@H]2CC[C@@H](Oc3ccc4nnc(-c5ccccc5SCCO)n4c3)c3ccccc32)cc1 [Example 10]
< 10 | CC(C)c1nnc2ccc(O[C@@H]3CC[C@H](NC(=O)Nc4cc(C(C)(C)C)nn4-c4cccc(OCCN(C)C)c4)c4ccccc43)cn12 [Example 11, 1-{5-tert-Butyl-2-[3-(2-dimethylamino-ethoxy)-phenyl]-2H-pyrazol-3-yl}-3-[(1S,4R)-4-(3-isopropyl-[1,2,4]triazolo[4,3-a]pyridin-6-yloxy)-1,2,3,4-tetrahydro-naphthalen-1-yl]-urea]
< 10 | CC(C)c1nnc2ccc(O[C@@H]3CC[C@H](NC(=O)Nc4cc(C(C)(C)C)nn4-c4ccc(O)c(Cl)c4)c4ccccc43)cn12 [Example 12, 1-[5-tert-Butyl-2-(3-chloro-4-hydroxy-phenyl)-2H-pyrazol-3-yl]-3-[(1S,4R)-4-(3-isopropyl-[1,2,4]triazolo[4,3-a]pyridin-6-yloxy)-1,2,3,4-tetrahydro-naphthalen-1-yl]-urea]
10 to 100 | CC(C)c1nnc2ccc(O[C@@H]3CC[C@H](NC(=O)NC4CC4)c4ccccc43)cn12 [Example 13, 1-Cyclopropyl-3-[(1S,4R)-4-(3-isopropyl-[1,2,4]triazolo[4,3-a]pyridin-6-yloxy)-1,2,3,4-tetrahydro-naphthalen-1-yl]-urea]
< 10 | CC(C)c1nnc2ccc(O[C@@H]3CC[C@H](NC(=O)Nc4cc(C(C)(C)C)nn4-c4ccc(Cl)c(O)c4)c4ccccc43)cn12 [Example 14, 1-(5-tert-Butyl-2-(4-chloro-3-hydroxyphenyl)-2H-pyrazol-3-yl)-3-[(1S,4R)-4-(3-isopropyl-[1,2,4]triazolo[4,3-a]pyridin-6-yloxy)-1,2,3,4-tetrahydronaphthalen-1-yl]-urea]
< 10 | CC(C)c1nnc2ccc(O[C@@H]3CC[C@H](NC(=O)Nc4cc(C(C)(C)C)nn4-c4ccc(O)cc4)c4ccccc43)cn12 [Example 15, 1-[5-tert-Butyl-2-(4-hydroxy-phenyl)-2H-pyrazol-3-yl]-3-[(1S,4R)-4-(3-isopropyl-[1,2,4]triazolo[4,3-a]pyridin-6-yloxy)-1,2,3,4-tetrahydro-naphthalen-1-yl]-urea]
< 10 | Cc1ccc(-n2nc(C(C)(C)C)cc2NC(=O)N[C@H]2CC[C@@H](Oc3ccc4nnc(C(C)(C)C)n4c3)c3ccccc32)cc1 [Example 16, 1-(5-tert-Butyl-2-p-tolyl-2H-pyrazol-3-yl)-3-[(1S,4R)-4-(3-tert-butyl-[1,2,4]triazolo[4,3-a]pyridin-6-yloxy)-1,2,3,4-tetrahydro-naphthalen-1-yl]-urea]
< 10 | CC(C)c1nnc2ccc(O[C@@H]3CC[C@H](NC(=O)Nc4cc(C(C)(C)C)on4)c4ccccc43)cn12 [Example 17, 1-(5-tert-Butyl-isoxazol-3-yl)-3-[(1S,4R)-4-(3-isopropyl-[1,2,4]triazolo[4,3-a]pyridin-6-yloxy)-1,2,3,4-tetrahydro-naphthalen-1-yl]-urea]
< 10 | Cc1ccc(-n2nc(C(C)(C)C)cc2NC(=O)N[C@H]2CC[C@@H](Oc3ccc4nnc(C5CCCC5)n4c3)c3ccccc32)cc1 [Example 18, 1-(5-tert-Butyl-2-p-tolyl-2H-pyrazol-3-yl)-3-[(1S,4R)-4-(3-cyclopentyl-[1,2,4]triazolo[4,3-a]pyridin-6-yloxy)-1,2,3,4-tetrahydro-naphthalen-1-yl]-urea]
< 10 | CC(C)c1nnc2ccc(O[C@@H]3CC[C@H](NC(=O)Nc4cc(C(C)(C)C)nn4-c4cccc(CN5CCOCC5)c4)c4ccccc43)cn12 [Example 19, 1-[5-tert-Butyl-2-(3-morpholin-4-ylmethyl-phenyl)-2H-pyrazol-3-yl]-3-[(1S,4R)-4-(3-isopropyl-[1,2,4]triazolo[4,3-a]pyridin-6-yloxy)-1,2,3,4-tetrahydro-naphthalen-1-yl]-urea, formic acid salt]
< 10 | Cc1ccc(-n2nc(C(C)(C)C)cc2NC(=O)N[C@H]2CC[C@@H](Oc3ccc4nnc(-c5c(Cl)cccc5Cl)n4c3)c3ccccc32)cc1 [Example 20]
< 10 | Cc1ccc(-n2nc(C(C)(C)C)cc2NC(=O)N[C@H]2CC[C@@H](Oc3ccc4nnc(C5CC5)n4c3)c3ccccc32)cc1 [Example 21, 1-(5-tert-Butyl-2-p-tolyl-2H-pyrazol-3-yl)-3-[(1S,4R)-4-(3-cyclopropyl-[1,2,4]triazolo[4,3-a]pyridin-6-yloxy)-1,2,3,4-tetrahydro-naphthalen-1-yl}-urea]
< 10 | Cc1ccc(-n2nc(C(C)(C)C)cc2NC(=O)N[C@H]2CC[C@@H](Oc3ccc4nnc(-c5ccccn5)n4c3)c3ccccc32)cc1 [Example 22, 1-(5-tert-Butyl-2-p-tolyl-2H-pyrazol-3-yl)-3-[(1S,4R)-4-(3-pyridin-2-yl-[1,2,4]triazolo[4,3-a]pyridin-6-yloxy)-1,2,3,4-tetrahydro-naphthalen-1-yl}-urea]
< 10 | Cc1ccc(-n2nc(C(C)(C)C)cc2NC(=O)N[C@H]2CC[C@@H](Oc3ccc4nnc(-c5ccccc5Cl)n4c3)c3ccccc32)cc1 [Example 23]
< 10 | Cc1ccc(-n2nc(C(C)(C)C)cc2NC(=O)N[C@H]2CC[C@@H](Oc3ccc4nnc(-c5ccccc5OCc5ccccc5)n4c3)c3ccccc32)cc1 [Example 24, 1-{(1S,4R)-4-[3-(2-Benzyloxy-phenyl)-[1,2,4]triazolo[4,3-a]pyridin-6-yloxy)-1,2,3,4-tetrahydro-naphthalen-1-yl}-3-(5-tert-butyl-2-p-tolyl-2H-pyrazol-3-yl)-urea]
< 10 | CC(C)c1nnc2ccc(O[C@H]3CC[C@H](NC(=O)Nc4cc(C(C)(C)C)nn4-c4ccc(O)c(Cl)c4)c4ccccc43)cn12 [Example 25, 1-[5-tert-Butyl-2-(3-chloro-4-hydroxy-phenyl)-2H-pyrazol-3-yl]-3-[(1S,4S)-4-(3-isopropyl-[1,2,4]triazolo[4,3-a]pyridin-6-yloxy)-1,2,3,4-tetrahydro-naphthalen-1-yl]-urea]
